Reference: article PMC3355380, “Back to the Future: Lessons Learned in Modern Target-based and Whole-Cell Lead Optimization of Antimalarials” (Current Topics in Medicinal Chemistry, 2012)
Values after ≈ are worked out from the molar mass of the structure shown. Read-outs that look alike come from different tables or passages of the source.

How the values were obtained:
[1] = molecular target: WT-PfDHFR (wild type PfDHFR); set-up: method as in PMID 20350951; conditions: cited from earlier work
[2] = molecular target: QM-PfDHFR (quadruple mutant PfDHFR); set-up: method as in PMID 20350951; conditions: cited from earlier work
recombinant PfCDPK1 = recombinant PfCDPK1 (Plasmodium falciparum, UniProt P62344); assay: PfCDPK1 enzyme inhibition; assay type: biochemical
Source text: In P. falciparum, calcium-dependent protein kinase 1 (PfCDPK1) is expressed during schizogony in the blood and sporozoite stages and is ultimately required for parasite invasion of host cells, parasite motility, and potentially cytokinesis. We identified a series of purine-based, ATP competitive kinase inhibitors from a target-based screen of approximately 20,000 compounds on recombinant PfCDPK1 [9]. Of the most promising hits, the 2,6,9-trisubstitutes purines made up the largest class of compounds coming out of the screen and were therefore chosen as a lead series for chemical optimization.

P. falciparum 3D7 = P. falciparum 3D7 proliferation assay; assay type: cell-based, Plasmodium falciparum; conditions: for EC50: Plasmodium falciparum, 3D7
Source text: (§1) We screened both our in-house compound collection (~2.3M compounds) and natural products library (12,000 compounds) using a cell based Plasmodium falciparum proliferation assay. This screen provided data on a large number of chemically diverse anti-malarial compounds. These nearly 5700 hits have been deposited into the public EBI database by GNF/Novartis. A number of these hits originated from kinase-directed libraries and many of which are pan-kinase inhibitors. De-convoluting and eliminating inherent kinase activity with many of these scaffolds while maintaining cellular potency was the first step in the hit-to-lead phase for these particular chemotypes. What follows is a summary of the chemical optimization of some kinase-like and non-kinase scaffolds which came out of the whole-cell screening effort.

P. falciparum W2 = P. falciparum W2 proliferation assay; assay type: cell-based; conditions: Plasmodium falciparum, mean of two experiments
Source text: as §1

[3] = test system: fifteen P. falciparum strains; assay: panel of fifteen P. falciparum wild type and drug resistant strains; assay type: cell-based; conditions: Plasmodium falciparum, read-out: in vitro EC50s across fifteen P. falciparum strains
P. falciparum NF54 [4] = assay: P. falciparum NF54 in vitro potency; assay type: cell-based; conditions: Plasmodium falciparum, spiroindolones, Tables 8 and 9
[5] = metabolic stability in mouse liver microsomes; assay type: in vitro ADME; conditions: for Liver Microsomes CLint, Mouse: intrinsic clearance, high clearance corresponds to low stability; for half-life: mouse, liver microsomes, read-out: Liver Microsomes t1/2 (min), Mouse
[6] = metabolic stability in human liver microsomes; assay type: in vitro ADME; conditions: for half-life: human, liver microsomes, read-out: Liver Microsomes t1/2 (min), Human; for Liver Microsomes CLint, Human: intrinsic clearance, high clearance corresponds to low stability
aqueous solubility = assay type: physicochemical; conditions: aqueous medium, pH 6.8, aqueous buffer
40 mammalian kinases = assay: panel of 40 mammalian kinases; assay type: biochemical
Plasmodium berghei = assay: P. berghei murine model; assay type: in vivo; conditions: for Activity (%): average parasitemia reduction; for parasitemia reduction: at all dosing regimens; for Cure Rate (%): cure was no parasites at day 30
P. falciparum NF54 [7] = test system: P. falciparum NF54; set-up: method as in PMID 20813948; conditions: Fig. 4; cited from earlier work
[8] = test system: chloroquine-resistant K1 P. falciparum strain; set-up: method as in PMID 20813948; conditions: Fig. 4; cited from earlier work
Huh7 = assay: cytotoxicity on Huh7 cells; conditions: mean of two experiments
190 kinases = assay: human kinase profile on 190 kinases, biochemical and cellular formats; conditions: biochemical and cellular assay formats
[9] = cytotoxicity on CHO cells; assay type: cell-based; conditions: Chinese hamster
[10] = cytotoxicity on HEp2 cells; assay type: cell-based; conditions: human
[11] = cytotoxicity on HeLa cells; assay type: cell-based; conditions: human
[12] = cytotoxicity on Huh7 cells; conditions: human, Huh7 cells
[13] = mean of two experiments, read-out: PfCDPK1 IC50
[14] = purines, mean of two experiments, read-out: P. falciparum 3D7 EC50
[15] = piperidyl benzamides, mean of two experiments, read-out: P. falciparum 3D7 EC50
[16] = imidazolopyrimidines, Fig. 2, read-out: 3D7 EC50
[17] = 1 x 30 mg/kg, 7% Tween 80/3% ethanol (20: 75% PEG300/25%D5W)
[18] = 1 x 30 mg/kg, untreated mice 6-7 days
[19] = 1 x 100 mg/kg, untreated mice 6-7 days
[20] = 3 x 30 mg/kg, untreated mice 6-7 days
[21] = imidazolopiperazine hits, mean of two experiments, read-out: P. falciparum 3D7 EC50

Chain of recombinant PfCDPK1 (P62344 whole entry): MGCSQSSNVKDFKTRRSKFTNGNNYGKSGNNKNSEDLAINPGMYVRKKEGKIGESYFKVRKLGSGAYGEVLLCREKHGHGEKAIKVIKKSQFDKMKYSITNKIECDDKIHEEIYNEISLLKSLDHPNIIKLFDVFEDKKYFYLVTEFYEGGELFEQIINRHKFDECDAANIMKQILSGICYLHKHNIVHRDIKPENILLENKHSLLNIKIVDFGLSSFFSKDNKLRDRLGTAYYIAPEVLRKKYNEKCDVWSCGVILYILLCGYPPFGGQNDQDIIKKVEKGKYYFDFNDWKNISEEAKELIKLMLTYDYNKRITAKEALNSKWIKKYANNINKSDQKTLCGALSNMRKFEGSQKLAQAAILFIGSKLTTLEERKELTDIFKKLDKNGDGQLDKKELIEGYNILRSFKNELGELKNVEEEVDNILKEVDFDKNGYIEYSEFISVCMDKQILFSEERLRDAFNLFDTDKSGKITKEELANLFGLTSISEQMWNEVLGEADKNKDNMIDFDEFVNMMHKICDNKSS

CCc1nc(N)nc(N)c1-c1ccc(Cl)cc1 [Pyrimethamine]
Ki [1]: 0.59 ± 0.05 nM
Ki [2]: 385 ± 163 nM

N[C@H]1CC[C@H](Nc2nc(Nc3ccc(C(=O)N4CCCCC4)cc3)c3ncn(-c4cccc(C(=O)O)c4)c3n2)CC1 [Compound 6]
IC50 (recombinant PfCDPK1; [13]): 71 nM
EC50 (P. falciparum 3D7; [14]): > 10000 nM

N[C@H]1CC[C@H](Nc2nc(Nc3ccc(C(=O)N4CCCCC4)cc3)c3ncn(-c4ccc(OCc5ccccc5)cc4)c3n2)CC1 [Compound 3]
IC50 (recombinant PfCDPK1; [13]): 4040 nM
EC50 (P. falciparum 3D7; [14]): 312 nM

CC1CCN(C2CCN(c3cc(C(=O)Nc4cccc(Cl)c4)cc(C(F)(F)F)c3)CC2)CC1 [Compound 14]
EC50 (P. falciparum 3D7; [15]): 140 nM
EC50 (P. falciparum W2; piperidyl benzamides): 323 nM
EC50 [3]: 100 to 300 nM

CC1(C)N=C(N)N=C(N)N1c1ccc(Cl)cc1 [Cycloguanil]
Ki [1]: 1.51 ± 0.1 nM
Ki [2]: 454 ± 38 nM

C[C@H]1Cc2c([nH]c3cc(F)ccc23)[C@@]2(N1)C(=O)Nc1ccc(Cl)cc12 [Compound 28]
EC50 (P. falciparum NF54 [4]): 3.5 nM
Liver Microsomes CLint, Mouse [5]: Low
half-life [5]: 53 min
half-life [6]: 53.3 min
Liver Microsomes CLint, Human [6]: Low

FC(F)(F)Oc1ccc(Nc2cc(Nc3nccn3-c3cccc(C(F)(F)F)c3)ncn2)cc1 [Compound 16]
EC50 (P. falciparum 3D7; [16]): 420 nM
solubility (aqueous solubility): 36 µM (≈ 17.3 µg/mL)
activity against a panel of 40 mammalian kinases (40 mammalian kinases): did not exhibit significant activity

CC(C)(N)C(=O)N1CCn2c(nc(-c3ccc(F)cc3)c2Nc2ccc(F)c(Cl)c2)C1 [Compound 20]
Activity (%) (Plasmodium berghei; [17]): 99.4%
Survival (Plasmodium berghei; [18]): 7.7 days
Activity (%) (Plasmodium berghei; 1 x 100 mg/kg): 99.4%
Survival (Plasmodium berghei; [19]): 17.0 days
Activity (%) (Plasmodium berghei; 3 x 30 mg/kg): 99.8%
Survival (Plasmodium berghei; [20]): 17.7 days
parasitemia reduction (Plasmodium berghei): more than 99%

C[C@H]1Cc2c([nH]c3cc(F)c(F)cc23)[C@@]2(N1)C(=O)Nc1ccc(Cl)cc12 [Compound 29]
EC50 (P. falciparum NF54 [4]): 0.2 nM
Liver Microsomes CLint, Mouse [5]: Low
half-life [5]: 49.1 min
half-life [6]: 56.4 min
Liver Microsomes CLint, Human [6]: Low

N[C@H]1CC[C@H](Nc2nc(Nc3ccc(C(=O)N4CCCCC4)cc3)c3ncn(-c4ccc5c(c4)OCO5)c3n2)CC1 [Compound 4]
IC50 (recombinant PfCDPK1; [13]): 342 nM
EC50 (P. falciparum 3D7; [14]): 400 nM

C[C@H]1Cc2c([nH]c3ccc(F)cc23)[C@@]2(N1)C(=O)Nc1ccc(Cl)cc12 [Compound 27]
EC50 (P. falciparum NF54 [4]): 3.4 nM
Liver Microsomes CLint, Mouse [5]: High
half-life [5]: 4.2 min
half-life [6]: 10 min
Liver Microsomes CLint, Human [6]: Med

O=C(Nc1cccc(Cl)c1)c1cc(N2CCC(N3CCCCC3)CC2)cc(C(F)(F)F)c1 [Compound 12]
EC50 (P. falciparum 3D7; [15]): 97 ± 18 nM
EC50 (P. falciparum W2; piperidyl benzamides): 276 ± 14 nM

O=C(Nc1cccc(Cl)c1)c1cc(N2CCC(N3CCCC3)CC2)cc(C(F)(F)F)c1 [Compound 11]
EC50 (P. falciparum 3D7; [15]): 134 ± 56 nM
EC50 (P. falciparum W2; piperidyl benzamides): 888 ± 112 nM

CCOc1ccc(-n2cnc3c(Nc4ccc(C(=O)N5CCCCC5)cc4)nc(N[C@H]4CC[C@H](N)CC4)nc32)cc1 [Compound 5]
IC50 (recombinant PfCDPK1): 240 nM
EC50 (P. falciparum 3D7; [14]): 535 nM

C[C@H]1CCc2c([nH]c3ccccc23)[C@@]2(N1)C(=O)Nc1ccc(Br)cc12 [Compound 22]
EC50 (P. falciparum NF54 [7]): 10 nM
EC50 [8]: 16 nM

CC1CCCN(C2CCN(c3cc(C(=O)Nc4cccc(C(F)(F)F)c4)cc(C(F)(F)F)c3)CC2)C1 (stereo not drawn) [Compound 15]
EC50 (P. falciparum 3D7; [15]): 58 nM
EC50 (P. falciparum W2; piperidyl benzamides): 211 nM

NC(Cc1ccccc1)C(=O)N1CCn2c(nc(-c3ccccc3)c2Nc2ccc3c(c2)OCO3)C1 (stereo not drawn) [Compound 18b]
EC50 (P. falciparum 3D7; [21]): 235 nM
EC50 (P. falciparum W2; imidazolopiperazine hits): 271 nM
Cytotoxicity (µM) Huh7 (Huh7): > 10 µM

CN1CCN(c2nc(Nc3ccc(OC(F)(F)F)cc3)cc(Nc3nccn3-c3cccc(C(F)(F)F)c3)n2)CC1 [Compound 17]
improvement in potency over the hit compound (P. falciparum 3D7; 17 versus 16): greater than 10 fold
EC50 (P. falciparum 3D7; [16]): 34 nM
EC50 [3]: < 140 nM
human kinase profile on 190 kinases (190 kinases): clean human kinase profile

O=C(Nc1cccc(C(F)(F)F)c1)c1cc(N2CCC(N3CCCCC3)CC2)cc(C(F)(F)F)c1 [Compound 13]
EC50 (P. falciparum 3D7; [15]): 149 nM
EC50 (P. falciparum W2; piperidyl benzamides): 299 nM

CC(C)CC(N)C(=O)N1CCn2c(nc(-c3ccccc3)c2Nc2ccc3c(c2)OCO3)C1 (stereo not drawn) [Compound 18c]
EC50 (P. falciparum 3D7; [21]): 116 nM
EC50 (P. falciparum W2; imidazolopiperazine hits): 119 nM
Cytotoxicity (µM) Huh7 (Huh7): > 10 µM

C[C@@H]1CCc2c([nH]c3ccccc23)[C@]2(N1)C(=O)Nc1ccc(Br)cc12 [Compound 23]
EC50 (P. falciparum NF54 [7]): > 5000 nM
EC50 [8]: > 3000 nM

N[C@H]1CC[C@H](Nc2nc(Nc3ccc(C(=O)N4CCCCC4)cc3)c3ncn(-c4cccc(F)c4)c3n2)CC1 [Compound 2, purfalcamine]
IC50 (recombinant PfCDPK1): 17 nM
improvement in enzyme potency (2 vs. 3) (recombinant PfCDPK1; compound 2 versus compound 3): greater than 200 fold
EC50 (P. falciparum 3D7; [14]): 230 nM
EC50 [9]: 12300 nM
EC50 [10]: 7200 nM
EC50 [11]: 7000 nM
EC50 [12]: 5500 nM

N[C@H]1CC[C@H](Nc2nc(Nc3ccc(C(=O)N4CCCCC4)cc3)c3ncn(-c4ccc(C(=O)O)cc4)c3n2)CC1 [Compound 7]
IC50 (recombinant PfCDPK1; [13]): 28 nM
EC50 (P. falciparum 3D7; [14]): > 10000 nM

CC(C)(N)C(=O)N1CCn2c(nc(-c3ccc(F)cc3)c2Nc2ccc(F)cc2)C1 [Compound 19]
Activity (%) (Plasmodium berghei; [17]): 99.3%
Survival (Plasmodium berghei; [18]): 7.7 days
Activity (%) (Plasmodium berghei; 1 x 100 mg/kg): 99.6%
Survival (Plasmodium berghei; [19]): 13.3 days
Activity (%) (Plasmodium berghei; 3 x 30 mg/kg): 99.9%
Survival (Plasmodium berghei; [20]): 14.0 days
parasitemia reduction (Plasmodium berghei): more than 99%

C[C@H]1[C@H](OC(=O)CCC(=O)O)O[C@@H]2O[C@@]3(C)CC[C@H]4[C@H](C)CC[C@@H]1[C@@]24OO3 [AS, artesunate, reference compound]
Activity (%) (Plasmodium berghei; [17]): 89%
Activity (%) (Plasmodium berghei; 1 x 30 mg/kg, 10% ethanol, 30% PEG400, 6% vitamin E TPGS (30: 0.5% MCM / 0.1% Solutol HS15)): 92.2%
Cure Rate (%) (Plasmodium berghei; 1 x 30 mg/kg): 0%
Survival (Plasmodium berghei; [18]): 7.2 days
Survival (Plasmodium berghei; 1 x 30 mg/kg, untreated mice 6-7 days, Table 10): 7.3 days
Activity (%) (Plasmodium berghei; 1 x 100 mg/kg): 97%
Survival (Plasmodium berghei; [19]): 6.7 days
Survival (Plasmodium berghei; 3 x 30 mg/kg, 30 day experiment, Table 10): 11.8 days
Activity (%) (Plasmodium berghei; 3 x 30 mg/kg): 98%
Activity (%) (Plasmodium berghei; 3 x 30 mg/kg, Table 10): 99.0%
Cure Rate (%) (Plasmodium berghei; 3 x 30 mg/kg): 0%
Survival (Plasmodium berghei; [20]): 7.2 days
